{
  "source": "patent US20220187282A1",
  "about": "“CARDIOMYOCYTE PROLIFERATION” (The Council of the Queensland Institute of Medical Research, priority 2019, published 2022)",
  "key": {"2D hPSC-CM": {"test_system": "2D hPSC-CM", "assay": "2D hPSC-CM culture, Ki-67 image cytometry (proliferation, number, size)", "format": "cell-based, human", "conditions": "24 h, 0.5 M mevalonic acid 5-phosphate, 20 μM GGPP, 20 μM FPP, 20 μM squalene", "protocol": "Day 15 dissociated differentiation cultures were plated at 100,000 cells/cm2 in 0.1% gelatin coated 96-well tissue culture plates in CTRL medium. For 3 day incubation experiments, after 2 days of culture in CTRL medium, cells were then treated with 10 μM simvastatin in maturation medium for a further 3 days. For 1 day incubation experiments, after 1 day of culture in CTRL medium, cells were treated with 10 μM simvastatin, 0.5 M (±)-Mevalonic acid 5-phosphate lithium salt hydrate, 20 μM geranylgeranyl pyrophosphate, 20 μM farnesyl pyrophosphate and/or 20 μM squalene in maturation medium for a further day.\nhCOs were fixed for 10 min with 1% paraformaldehyde (Sigma) at room temperature and washed 3× with PBS, after which they were incubated with primary antibodies (see Star Methods Table) in Blocking Buffer, 5% FBS and 0.2% Triton-X-100 (Sigma) in PBS for 1-2 hours at room temperature. Cells were then washed in Blocking Buffer 2× for 3 min and subsequently incubated with secondary antibodies (see Star Methods Table) and Hoechst33342 (1:1000) for 1 hour at room temperature. They were washed in Blocking Buffer 2× and imaged.\nFor screening hCOs were imaged using a Leica DMi8 high content imaging microscope for in situ imaging. Custom batch processing files were written in Matlab R2013a (Mathworks) to analyse the number of cardiomyocytes, identify the nuclei of proliferating (Ki-67+) cardiomyocytes and determine the average size of the cardiomyocytes, and export the batch data to an Excel (Microsoft) spreadsheet.\nInitial experiments were performed in immature proliferative 2D hPSC-CM (FIG. 6A) using high content imaging (FIG. 6B) and image cytometry analysis (FIG. 13A). HMGCR mediated production of cholesterol metabolites was inhibited with 10 μM simvastatin for 3 days.\nIn order to determine which metabolites in the mevalonate pathway are critical for proliferation, we performed experiments over 24 hours to enable more precise control of metabolites and to measure the primary effects of the manipulations. In these experiments, the mevalonate pathway was inhibited using 10 μM simvastatin, and then different metabolites were provided within the medium (highlighted in red in FIG. 6F)."}, "mature hCOs": {"test_system": "mature hCOs", "assay": "mature hCO, cardiomyocyte proliferation (Ki-67 intensity, Ki-67+ α-actinin cardiomyocytes)", "format": "cell-based, human", "protocol": "hCOs were cultured in CTRL medium for formation for 5 days and then either kept in CTRL medium culture or changed to maturation medium (Mills et al., 2017a) comprising DMEM without glucose, glutamine and phenol red (ThermoFisher Scientific) supplemented with 4% […](without insulin) (ThermoFisher Scientific), 1% GlutaMAX (ThermoFisher Scientific), 200 μM L-ascorbic acid 2-phosphate sesquimagnesium salt hydrate and 1% Penicillin/Streptomycin (ThermoFisher Scientific), 1 mmol/L glucose and 100 μmon palmitic acid (conjugated to bovine serum albumin within B27 by incubating for 2h at 37° C., Sigma) with changes every 2-3 days.\nWhole-Mount Immunostaining hCOs were fixed for 60 min with 1% paraformaldehyde (Sigma) at room temperature and washed 3× with PBS, after which they were incubated with primary antibodies (see Star Methods Table) in Blocking Buffer, 5% FBS and 0.2% Triton-X-100 (Sigma) in PBS overnight at 4° C. Cells were then washed in Blocking Buffer 2× for 2 h and subsequently incubated with secondary antibodies (see Star Methods Table) and Hoechst33342 (1:1000) overnight at 4° C. They were washed in Blocking Buffer 2× for 2 h and imaged in situ or mounted on microscope slides using Fluoromount-G (Southern Biotech).\nFor screening hCOs were imaged using a Leica DMi8 high content imaging microscope for in situ imaging. Custom batch processing files were written in Matlab R2013a (Mathworks) to remove the background, calculate the image intensity, and export the batch data to an Excel (Microsoft) spreadsheet.\nFor more detailed images an Olympus IX81 confocal microscope was used for mounted hCO imaging. For cell cycle analysis experiments 3 random fields of view were imaged and manually quantified for proliferation. These were added together to calculate the percentage of hPSC-CM proliferation in each hCO.\nHits were next validated in mature hCOs using a targeted concentration range based on their active concentrations in the initial immature hCO screen (FIG. 3A). Proliferation markers were quantified using high magnification confocal imaging as we found flow cytometry to be inaccurate in hCO (data not shown). Compounds 3, 63 and 65 had no impact on contractile force (FIG. 3B) at concentrations of 3 μM, 0.3 μM and 1 μM, respectively. […] The effects of both compound 3 and compound 65 were reversible, with proliferation ceasing within 5 days of compound withdrawal (FIG. 8B). Therefore, compound 3 (FIG. 3G) and compound 65 (Goldberg et al., 2009) (FIG. 3H) are both capable of inducing bona fide cardiomyocyte proliferation in mature hCOs without adversely affecting contractile properties."}, "mature hCO": {"test_system": "mature hCO", "assay": "single organoid quantitative proteomics of mature hCO", "format": "cell-based, human", "conditions": "mature hCO proteomics", "protocol": "Single hCO were washed 2× in PBS and snap frozen and stored at −80° C. Tissues were lysed in by tip-probe sonication in 1% SDS containing 100 mM Tris pH 8.0, 10 mM tris(2-carboxyethyl)phosphine, 40 mM 2-chloroacetamide and heated to 95° C. for 5 min. Proteins were purified using a modified Single-Pot Solid-Phase-enhanced Sample Preparation (SP3) strategy (Hughes et al., 2014). Briefly, Proteins were bound to Sera-Mag carboxylate coated paramagnetic beads in 50% acetonitrile containing 0.8% formic acid (v/v) (ThermoFisher Scientific). The beads were washed twice with 70% ethanol (v/v) and once with 100% acetonitrile. Proteins were digested on the beads in 100 mM Tris pH 7.5 containing 10% 2,2,2-Trifluoroethanol overnight at 37° C. with 200 ng of sequencing grade LysC (Wako Chemicals) and trypsin (Sigma). Beads were removed and peptides acidified to 1% trifluoroacetic acid prior to purification by styrene divinyl benzene-reversed phase sulfonated solid phase extraction microcolumns. Peptides were spiked with iRT peptides (Biognosys) and analysed on an Easy-nLC1200 coupled to a Q-Exactive HF in positive polarity mode. Peptides were separated using an in-house packed 75 μm×50 cm pulled column (1.9 μm particle size, C18AQ; Dr Maisch) with a gradient of 2-35% acetonitrile containing 0.1% FA over 120 min at 300 nL/min at 60° C. The instrument was operated in data-independent acquisition (DIA) mode essentially as described previously (Bruderer et al., 2017). Briefly, an MS1 scan was acquired from 350-1650 m/z (120,000 resolution, 3e6 AGC, 50 ms injection time) followed by 20 MS/MS variable sized isolation windows with HCD (30,000 resolution, 3e6 AGC, 27 NCE). A spectral library was created by fractionating a pooled mix of peptides from 10 separate hCO on an inhouse packed 320 μm×25 cm column (3 μm particle size, BEH; Waters) with a gradient of 2-40% acetonitrile containing 10 mM ammonium formate over 60 min at 6 μL/min using an Agilent 1260 HPLC. A total of 12 concatenated fractions were analysed using the identical LC-MS/MS conditions above except the instrument was operated in data-dependent acquisition (DDA) mode. Briefly, an MS1 scan was acquired from 350-1650 m/z (60,000 resolution, 3e6 AGC, 50 ms injection time) followed by 20 MS/MS with HCD (1.4 m/z isolation, 15,000 resolution, 1e5 AGC, 27 NCE). DDA data were processed with Andromeda in MaxQuant v1.5.8.3 (Cox and Mann, 2008) against the human UniProt database (January 2016) using all default settings with peptide spectral matches and protein false discovery rate (FDR) set to 1%. DIA data were processed with Spectronaut v11 (Bruderer et al., 2015) using all default settings with precursor and protein FDR set to 1% and quantification performed at MS2.\nProteomic data were Log 2 transformed and median normalised. Removal of unwanted variation method (RUV) was applied to remove any batch effects (Gagnon-Bartsch et al., 2013). Differential abundance was determined with two sample t-tests with FDR-based multiple hypothesis testing correction. GO analysis was performed with DAVID v6.8 and gene ontology terms from BP_FAT (Huang da et al., 2009) and heat-maps and hierarchical clustering was performed using GENE-E (Broad Institute).\nIn order to determine the biological processes driving the pro-proliferative effects of our hit compounds, we performed RNA-sequencing (RNA-seq) and single organoid quantitative proteomics (FIG. 4A). These analyses were performed on hCOs treated with compounds 3, 63 and 65 at concentrations of 3 μM, 0.3 μM and 1 μM, respectively. RNA-seq for hCO treated with compounds 3 and 65 clustered distinctly in principal component analysis (FIG. 4B) and regulated a total of 239 and 207 genes (FIG. 9A), respectively."}, "[1]": {"test_system": "adult rodent cardiomyocyte", "conditions": "Mohamed et al., 2018; cited from earlier work"}, "kinases": {"test_system": "kinases", "conditions": "Fan et al., 2016; cited from earlier work"}},
  "note": "Counter-ions that a name gives are not always drawn.",
  "data": [
    {"smiles": "CC(O)(CCOP(=O)(O)O)CC(=O)O", "note": "(racemic) [mevalonate, (±)-Mevalonic acid 5-phosphate lithium salt hydrate, reference compound]", "values": [
      {"measurement": "rescue of proliferation under 10 μM simvastatin", "setting": "2D hPSC-CM", "result": "rescued proliferation"},
      {"measurement": "proliferation in mature hCO", "setting": "mature hCOs; 0.5 mM, 2 days", "result": "induces proliferation"}
    ]},
    {"smiles": "Cc1c[nH]c(-c2cnc(NCCNc3ccc(C#N)cn3)nc2-c2ccc(Cl)cc2Cl)n1", "note": "[CHIR99021, reference compound]", "values": [
      {"measurement": "proliferation in mature hCO, compound individually", "setting": "mature hCOs; 5 μM CHIR99021 or 1 μM compound 51 alone", "result": "failed to activate proliferation individually"},
      {"measurement": "proliferation signature proteins (cell cycle network, mevalonate enzymes, nuclear transporters)", "setting": "mature hCO", "result": "only the “cell cycle network” proteins were induced"}
    ]},
    {"smiles": "NC(=O)c1ccc(-c2nc(-c3ccc4c(c3)OCO4)c(-c3ccccn3)[nH]2)cc1", "note": "[SB431542]", "values": [
      {"measurement": "pro-proliferative activity alone", "setting": "[1]", "result": "not sufficient"}
    ]},
    {"smiles": "CN1C(=O)c2sccc2N(C)c2nc(Nc3ccc(S(N)(=O)=O)cc3)ncc21", "note": "[XMU-MP-1, reference compound]", "values": [
      {"measurement": "proliferation in mature hCO in combination with GSK3 inhibition (Ki-67 intensity)", "setting": "mature hCOs; 5 μM CHIR99021 with 1 μM compound 51 or 1 μM XMU-MP-1", "result": "synergistic effect on proliferation"},
      {"measurement": "off-target effects on cell cycle proteins", "setting": "kinases", "result": "PLK4 and AURKB"}
    ]},
    {"smiles": "CC(C)=CCC/C(C)=C/CC/C(C)=C/COP(=O)(O)OP(=O)(O)O", "note": "[farnesyl pyrophosphate]", "values": [
      {"measurement": "rescue of proliferation under 10 μM simvastatin", "setting": "2D hPSC-CM", "result": "incapable of rescuing proliferation"}
    ]},
    {"smiles": "CC(C)=CCC/C(C)=C/CC/C(C)=C/CC/C(C)=C/COP(=O)(O)OP(=O)(O)O", "note": "[geranylgeranyl pyrophosphate]", "values": [
      {"measurement": "rescue of proliferation under 10 μM simvastatin", "setting": "2D hPSC-CM", "result": "rescued proliferation"}
    ]},
    {"smiles": "CC(C)=CCC/C(C)=C/CC/C(C)=C/CC/C=C(\\C)CC/C=C(\\C)CCC=C(C)C", "note": "[squalene]", "values": [
      {"measurement": "rescue of proliferation under 10 μM simvastatin", "setting": "2D hPSC-CM", "result": "not"}
    ]}
  ]
}
